Source: ChEMBL document CHEMBL1201862, “PubChem BioAssay data set” (2004)
Values joined by “and” are separate entries in the source; they are usually repeats but may differ in a detail not shown here. Identical values can stand only once.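 Dose response: 5 concentrations. Exposure: 48 h. Format: 96-well plates. Endpoint: linear interpolation; highest concentration if not reached. GI50: concentration for 50% inhibition of growth.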 Active and inactive are the calls of the source. Cut-off read from the data, not from the text of the source: active = GI50 up to about 1.1 µM and inactive = higher.

Legend:
Assay in all cases: growth of human tumour cells (NCI), 48 h
[1] = test system: 786-0
[2] = test system: A498
[3] = test system: EKVX
[4] = test system: HCT-116
[5] = test system: HCT-15
[6] = test system: Hs-578T
[7] = test system: IGROV-1
[8] = test system: K562
[9] = test system: M14
[10] = test system: NCI-H522
[11] = test system: NCI/ADR-RES
[12] = test system: OVCAR-8
[13] = test system: PC-3
[14] = test system: RXF 393
[15] = test system: SK-MEL-2
[16] = test system: SK-OV-3
[17] = test system: MOLT-4
[18] = test system: T47D
[19] = test system: BT-549

SMILES | GI50 [1] | GI50 [2] | GI50 [3] | GI50 [4] | GI50 [5] | GI50 [6] | GI50 [7] | GI50 [8] | GI50 [9] | GI50 [10] | GI50 [11] | GI50 [12] | GI50 [13] | GI50 [14] | GI50 [15] | GI50 [16] | GI50 [17] | GI50 [18] | GI50 [19]
Cc1cn2c(/C=N/NC(=N)N)c(-c3ccc(Cl)c([N+](=O)[O-])c3)nc2s1 | 0.984 µM (active) | 0.07 µM (active) | 0.776 µM (active) | 0.207 µM (active) | 1.7 µM | 0.973 µM (active) | 1.03 µM (active) | 0.257 µM (active) | 1.63 µM (inactive) | 0.16 µM (active) | > 28.5 µM (inactive) | 0.416 µM (active) | 1.58 µM (inactive) | 0.59 µM (active) | 0.647 µM (active) | 1.76 µM (inactive) | – | – | –
CCOC(=O)c1sc2c(c1OC(=O)c1ccc(OC)cc1)c(=O)n(-c1ccccc1)c(=S)n2-c1ccccc1 | 35.5 µM (inactive) | 17.1 µM (inactive) | > 100 µM (inactive) | 20.7 µM (inactive) | > 100 µM | > 100 µM (inactive) | > 100 µM (inactive) | > 100 µM (inactive) | > 100 µM (inactive) | 1.41 µM (inactive) | 21.8 µM (inactive) | > 100 µM (inactive) | > 100 µM (inactive) | > 100 µM (inactive) | – | > 100 µM (inactive) | > 100 µM (inactive) | > 100 µM (inactive) | –
COc1ccc(-n2c(-c3ccccc3)cc(-c3cccs3)c2-c2cccs2)cc1 | > 100 µM (inactive) | > 100 µM (inactive) | > 100 µM (inactive) | > 100 µM (inactive) | > 100 µM | > 100 µM (inactive) | > 100 µM (inactive) | – | > 100 µM (inactive) | > 100 µM (inactive) | > 100 µM (inactive) | > 100 µM (inactive) | – | 76.9 µM (inactive) | – | > 100 µM (inactive) | > 100 µM (inactive) | 26.5 µM (inactive) | –
S=C1/C(=N/c2ccccc2)N(C2CCCCC2)/C(=N\C2CCCCC2)N1c1ccccc1 | 75.7 µM (inactive) | > 100 µM (inactive) | > 100 µM (inactive) | 68.9 µM (inactive) | > 100 µM | > 100 µM (inactive) | 87.5 µM (inactive) | > 100 µM (inactive) | – | 6.73 µM (inactive) | > 100 µM (inactive) | > 100 µM (inactive) | 63.8 µM (inactive) | > 100 µM (inactive) | > 100 µM (inactive) | > 100 µM (inactive) | > 100 µM (inactive) | 82.6 µM (inactive) | –
CCOP(=O)(CC1OC(CO)C(O)C1O)OCC (stereo not drawn) | > 100 µM (inactive) | > 100 µM (inactive) | > 100 µM (inactive) | > 100 µM (inactive) | > 100 µM | > 100 µM (inactive) | > 100 µM (inactive) | > 100 µM (inactive) | > 100 µM (inactive) | > 100 µM (inactive) | – | – | > 100 µM (inactive) | > 100 µM (inactive) | > 100 µM (inactive) | > 100 µM (inactive) | > 100 µM (inactive) | > 100 µM (inactive) | > 100 µM (inactive)
COc1cc(/C=C\C(=O)O)ccc1OCc1ccccc1 | > 100 µM (inactive) | > 100 µM (inactive) | > 100 µM (inactive) | > 100 µM (inactive) | > 100 µM | 49.3 µM (inactive) | > 100 µM (inactive) | > 100 µM (inactive) | > 100 µM (inactive) | > 100 µM (inactive) | > 100 µM (inactive) | > 100 µM (inactive) | > 100 µM (inactive) | > 100 µM (inactive) | > 100 µM (inactive) | > 100 µM (inactive) | > 100 µM (inactive) | > 100 µM (inactive) | –
OC(C/C=N/N=C/CC(O)(C(F)(F)Cl)C(F)(F)Cl)(C(F)(F)Cl)C(F)(F)Cl | > 10 µM (inactive) | > 10 µM (inactive) | > 10 µM (inactive) | > 10 µM (inactive) | > 10 µM | > 10 µM (inactive) | > 10 µM (inactive) | > 10 µM (inactive) | > 10 µM (inactive) | > 10 µM (inactive) | > 10 µM (inactive) | > 10 µM (inactive) | > 10 µM (inactive) | > 10 µM (inactive) | > 10 µM (inactive) | > 10 µM (inactive) | > 10 µM (inactive) | > 10 µM (inactive) | –
O=C1CCC2(c3ccc(Cl)cc3)Nc3ncncc3N12 (stereo not drawn) | > 10 µM (inactive) | – | > 10 µM (inactive) | – | > 10 µM | > 10 µM (inactive) | > 10 µM (inactive) | > 10 µM (inactive) | > 10 µM (inactive) | > 10 µM (inactive) | > 10 µM (inactive) | > 10 µM (inactive) | > 10 µM (inactive) | – | > 10 µM (inactive) | > 10 µM (inactive) | > 10 µM (inactive) | – | > 10 µM (inactive)
NNC(=S)NCCNC(=S)NN | > 100 µM (inactive) | – | > 100 µM (inactive) | > 100 µM (inactive) | – | > 100 µM (inactive) | > 100 µM (inactive) | – | > 100 µM (inactive) | > 100 µM (inactive) | – | – | > 100 µM (inactive) | – | > 100 µM (inactive) | > 100 µM (inactive) | > 100 µM (inactive) | > 100 µM (inactive) | > 100 µM (inactive)
CCn1c2ccccc2c2cc(/N=N\c3ccc(C#N)cc3)ccc21 | 29 µM (inactive) | 25.8 µM (inactive) | 33.3 µM (inactive) | 50.4 µM (inactive) | > 100 µM | 42.1 µM (inactive) | 32.5 µM (inactive) | – | 25.9 µM (inactive) | 38.9 µM (inactive) | – | 39.3 µM (inactive) | > 100 µM (inactive) | – | > 100 µM (inactive) | 40.8 µM (inactive) | > 100 µM (inactive) | 50.6 µM (inactive) | 20.7 µM (inactive)
O=C1C(=O)N(C23CC4CC(CC(C4)C2)C3)C(=S)N1c1ccccc1 | > 100 µM (inactive) | > 100 µM (inactive) | 43.5 µM (inactive) | 93.5 µM (inactive) | > 100 µM | > 100 µM (inactive) | > 100 µM (inactive) | > 100 µM (inactive) | – | 17.1 µM (inactive) | 66.2 µM (inactive) | 97.9 µM (inactive) | > 100 µM (inactive) | > 100 µM (inactive) | 70.8 µM (inactive) | > 100 µM (inactive) | > 100 µM (inactive) | > 100 µM (inactive) | –
CC(C)OP(=O)(c1ccccc1)c1ccc2c(c1)OCCOCCOCCOCCO2 (stereo not drawn) | > 100 µM (inactive) | > 100 µM (inactive) | > 100 µM (inactive) | > 100 µM (inactive) | > 100 µM | > 100 µM (inactive) | > 100 µM (inactive) | > 100 µM (inactive) | – | 84.7 µM (inactive) | – | > 100 µM (inactive) | > 100 µM (inactive) | – | – | > 100 µM (inactive) | > 100 µM (inactive) | > 100 µM (inactive) | > 100 µM (inactive)
Cc1nc(OCc2ccccc2)c2ncn(CCO)c2n1 | > 100 µM (inactive) | > 100 µM (inactive) | – | > 100 µM (inactive) | – | > 100 µM (inactive) | > 100 µM (inactive) | – | > 100 µM (inactive) | > 100 µM (inactive) | > 100 µM (inactive) | – | > 100 µM (inactive) | > 100 µM (inactive) | > 100 µM (inactive) | > 100 µM (inactive) | > 100 µM (inactive) | – | > 100 µM (inactive)
CC(=O)OC1CC2C(=O)CC1(C)C2(C)C (stereo not drawn) | > 100 µM (inactive) | > 100 µM (inactive) | > 100 µM (inactive) | > 100 µM (inactive) | > 100 µM | > 100 µM (inactive) | – | > 100 µM (inactive) and > 80.4 µM (inactive) | > 100 µM (inactive) | > 100 µM (inactive) | > 100 µM (inactive) | > 100 µM (inactive) | > 100 µM (inactive) | > 100 µM (inactive) | > 100 µM (inactive) | > 100 µM (inactive) | > 100 µM (inactive) | > 100 µM (inactive) | –
O=C1/C(=C/c2ccc(Cl)cc2)NC(=S)N1CN1CCOCC1 | > 100 µM (inactive) | 57.3 µM (inactive) | > 100 µM (inactive) | > 100 µM (inactive) | > 100 µM | > 100 µM (inactive) | > 100 µM (inactive) | > 100 µM (inactive) | > 100 µM (inactive) | – | > 100 µM (inactive) | > 100 µM (inactive) | > 100 µM (inactive) | – | > 100 µM (inactive) | > 100 µM (inactive) | > 100 µM (inactive) | – | –
CSCC[C@H]1C(=O)N=C(N)N1C(=O)OCc1ccccc1 | 26.2 µM (inactive) | 72.9 µM (inactive) | 53.6 µM (inactive) | 17.6 µM (inactive) | 28.6 µM | 18 µM (inactive) | 63.7 µM (inactive) | 21.8 µM (inactive) | – | 19.7 µM (inactive) | 30.8 µM (inactive) | 29 µM (inactive) | 50.4 µM (inactive) | 17.3 µM (inactive) | > 100 µM (inactive) | – | 18.7 µM (inactive) | – | 19.8 µM (inactive)
CC1(C)CC(O)CC(C)(C)N1O [TEMPOL HYDROXYLAMINE] | > 100 µM (inactive) | > 100 µM (inactive) | > 100 µM (inactive) | > 100 µM (inactive) | > 100 µM | – | > 100 µM (inactive) | > 100 µM (inactive) | > 100 µM (inactive) | – | > 100 µM (inactive) | > 100 µM (inactive) | > 100 µM (inactive) | > 100 µM (inactive) | > 100 µM (inactive) | > 100 µM (inactive) | > 100 µM (inactive) | > 100 µM (inactive) | > 100 µM (inactive)
